This is an account of results in US10428074B2, “Pyrrole heteroaryl ring derivative and method of use thereof” (Jiangsu Hengrui Medicine Co., Ltd., priority 2011, dated 2019).

Experiment [1] relates to human erythroid leukemia cell line TF-1. Kind of experiment: Proliferation inhibition assay on TF-1 cells mediated by IL-4. Type of experiment: cell-based. Particulars: 10 ng/mL IL-4, 72 hours. The source says:
The following in vitro assay is to determine the activity of the compounds of the present invention for inhibiting the proliferation of human erythroid leukemia cell line TF-1.
The activity is represented by the IC50 value, which can not only reflect the activity of a test compound for inhibiting JAK2 and JAK3 kinase, but can also reflect the selectivity of a test compound for JAK2 and JAK3 kinase.
The general procedures of the assay are given as follows: first, the TF-1 cells (purchased from ATCC, Catalog number: CRL 2003) were seeded in a 96-well cell culture plate at a suitable cell concentration (8000 cells/mL medium), and 10 ng/mL IL-4 (Invitrogen, Catalog Number: PHC0044) were added to each well. Then 10× serial concentration gradient of test compounds solutions (10000, 1000, 100, 10, 1 and 0.1 nM) were prepared, and then the 10× compound solutions prepared above were added to the 96-well cell culture plate containing IL-4. After the cell plates were cultured continuously for 72 hours, the activity of the test compounds for inhibiting the cell proliferation was determined by using a Cell Counting Kit-8 (purchased from Dojindo, Catalog Number: CK04). IC50 values were calculated from the data of the inhibition rates at various concentrations of the test compounds.

Experiment [2] concerns T cells. Briefly: Proliferation inhibition assay on T cells (PBMC, anti-CD3, IL-2). Type of experiment: cell-based, human. The conditions noted are these: Homo sapiens, T-cell, IL-2 10 ng/mL. The source says: The following in vitro assay is to determine the activity of the compounds of the present invention for inhibiting the proliferation of T cells.
The activity is represented by the IC50 value.
The general procedures of the assay are given as follows: first, the PBMC cell line (purchased from Shanghai Blood Center) was centrifuged, the supernatant was removed, and the cells counted. […] Then, the cells were washed 3 times, resuspended, diluted to 2×10^6/mL, and then mixed with recombinant human IL-2 (purchased from Peprotech, Catalog Number: 200-02) to a concentration of 10 ng/mL, and cultured for another 3 days. The cells were washed again 3 times, and diluted to 5×10^5/mL. 80 μL of the cells were seeded in each well of a 96-well cell culture plate. […] To he control wells, 10 μL culture medium were added. The plate was placed in an incubator. After incubating for 1 hr, negative control wells were mixed with 10 μL of culture medium, and the rest of the wells were mixed with IL-2 to a concentration of 10 ng/mL, and incubated continuously for 72 hours. […] IC50 values were calculated from the data of inhibition rates at various concentrations of the test compounds.

Regarding `CN(c1ncnc2[nH]cc(F)c12)[C@H]1C[C@@H]2CN(C(=O)CO)C[C@@H]2C1` [Example 128, 1-((3aR,5S,6aS)-5-((5-fluoro-7H-pyrrolo[2,3-d]pyrimidin-4-yl) (methyl)amino)hexahydrocyclopenta[c]pyrrol-2(1H)-yl)-2-hydroxyethanone], the IC50 amounted to 252 nM in experiment [1] (TF-1, 72 h) and 167 nM in experiment [2] (72 h).

`CN(c1ncnc2[nH]ccc12)[C@@H]1C[C@@H]2CN(C(=O)OC(C)(C)C)C[C@]2(C)C1` (racemic) [Example 1, (3aR,5R,6aS/3aS,5S,6aR)-tert-butyl-3a-methyl-5-(methyl(7H-pyrrolo[2,3-d]pyrimidin-4-yl)amino)hexahydro cyclopenta[c]pyrrole-2(1H)-carboxylate] showed an IC50 in experiment [1] of 196 nM.

For `COc1nsc(NC(=O)N2C[C@H]3C[C@@H](N(C)c4ncnc5[nH]ccc45)C[C@H]3C2)n1` [Example 74, (3aR,5R,6aS)-N-(3-methoxy-1,2,4-thiadiazol-5-yl)-5-(methyl(7H-pyrrolo[2,3-d]pyrimidin-4-yl)amino)hexahydrocyclopenta [c]pyrrole-2(1H)-carboxamide], the results for the IC50 in experiment [1] and in experiment [2] (72 h) were 546 nM and 68 nM, respectively.

For the compound `CN(c1ncnc2[nH]ccc12)[C@@H]1C[C@@H]2CN(C(=O)Nc3nncs3)C[C@@H]2C1` [Example 73, (3aR,5R,6aS)-5-(methyl(7H-pyrrolo[2,3-d]pyrimidin-4-yl)amino)-N-(1,3,4-thiadiazol-2-yl)hexahydrocyclopenta[c] pyrrole-2(1H)-carboxamide], the IC50 in experiment [1] worked out at 476 nM; in experiment [2] (72 hours), 518 nM.

Take `CC(=O)N1C[C@H]2C[C@H](N(C)c3ncnc4[nH]ccc34)C[C@H]2C1` [Example 11, 1-((3aR,5S,6aS)-5-(Methyl(7H-pyrrolo[2,3-d]pyrimidin-4-yl)amino)hexahydrocyclopenta[c]pyrrol-2(1H)-yl)ethanone]: the IC50 in experiment [1] is 507 nM; in experiment [2] (72 hours), 705 nM.

Compound `CN(c1ncnc2[nH]ccc12)[C@H]1C[C@@H]2CN(C(=O)Nc3nc(C4CC4)ns3)C[C@@H]2C1` [Example 125, (3aR,5S,6aS)-N-(3-cyclopropyl-1,2,4-thiadiazol-5-yl)-5-(methyl(7H-pyrrolo[2,3-d]pyrimidin-4-yl)amino) hexahydrocyclopenta [c]pyrrole-2(1H)-carboxamide] had an IC50 in experiment [1] of 14 nM.

As for `CN(c1ncnc2[nH]ccc12)[C@H]1C[C@@H]2CN(C(=O)CC#N)C[C@@H]2C1` [Example 8, 3-((3 aR,5S,6aS)-5-(Methyl(7H-pyrrolo[2,3-d]pyrimidin-4-yl)amino)hexahydrocyclopenta[c]pyrrol-2(1H)-yl)-3-oxopropanenitrile], the IC50 in experiment [1] worked out at 530 nM; in experiment [2] (72 hours), 460 nM.

`CN(c1ncnc2[nH]ccc12)[C@H]1C[C@@H]2CN(C(=O)Nc3nncs3)C[C@@H]2C1` [Example 86, (3aR,5S,6aS)-5-(methyl(7H-pyrrolo[2,3-d]pyrimidin-4-yl)amino)-N-(1,3,4-thiadiazol-2-yl)hexahydrocyclopenta[c] pyrrole-2(1H)-carboxamide]: the values for the IC50 in experiment [1] and in experiment [2] (72 hours) were 691 nM and 130 nM, respectively.

As for `CN(c1ncnc2[nH]ccc12)C1C[C@@H]2CCN(C(=O)CC#N)C[C@@H]2C1` (stereo partly drawn) [Example 39, 3-((4aS,7aR)-6-(Methyl(7H-pyrrolo[2,3-d]pyrimidin-4-yl)amino)hexahydro-1H-cyclopenta[c]pyridin-2(3H,4H,4aH,5H,6H,7H,7aH)-yl)-3-oxopropanenitrile], the IC50 in experiment [1] worked out at 419 nM.

Consider `C[C@@H](O)C(=O)N1C[C@H]2C[C@H](N(C)c3ncnc4[nH]ccc34)C[C@H]2C1` [Example 19, (R)-2-Hydroxy-1-((3aR,5S,6aS)-5-(methyl(7H-pyrrolo[2,3-d]pyrimidin-4-yl)amino)hexahydrocyclopenta[c]pyrrol-2(1H)-yl)propan-1-one], for which the IC50 came out at 711 nM in experiment [1] and 724 nM in experiment [2] (72 h).

Turning to `COc1nsc(NC(=O)N2CC[C@H]3CC(N(C)c4ncnc5[nH]ccc45)C[C@H]3C2)n1` (stereo partly drawn) [Example 38, (4aS,7aR)—N-(3-Methoxy-1,2,4-thiadiazol-5-yl)-6-(methyl(7H-pyrrolo[2,3-d]pyrimidin-4-yl)amino)hexahydro-1H-cyclopenta[c]pyridine-2(3H)-carboxamide], the IC50 in experiment [1] is 160 nM; in experiment [2] (72 hours), 71 nM.

`CN(c1ncnc2[nH]ccc12)[C@H]1C[C@@H]2CN(C(=O)OC(C)(C)C)C[C@@H]2C1` [Example 5, (3aR,5S,6aS)-tert-Butyl 5-(methyl(7H-pyrrolo[2,3-d]pyrimidin-4-yl)amino)hexahydro cyclopenta[c]pyrrole-2(1H)-carboxylate] yielded an IC50 in experiment [1] of 133 nM.

For `Cc1noc(N2C[C@H]3C[C@H](N(C)c4ncnc5[nH]ccc45)C[C@H]3C2)n1` [Example 61, N-methyl-N-((3aR,5S,6aS)-2-(3-methyl-1,2,4-oxadiazol-5-yl)octahydrocyclopenta[c]pyrrol-5-yl)-7H-pyrrolo[2,3-d] pyrimidin-4-amine], half-maximal inhibition in experiment [1] (IC50) required 507 nM.

`CN(c1ncnc2[nH]c(F)cc12)[C@H]1C[C@@H]2CN(C(=O)CO)C[C@@H]2C1` [Example 129, 1-((3aR,5S,6aS)-5-((6-fluoro-7H-pyrrolo[2,3-d]pyrimidin-4-yl)(methyl)amino)hexahydrocyclopenta[c]pyrrol-2(1H)-yl)-2-hydroxyethanone] came in with an IC50 in experiment [1] of 539 nM.

For `CN(c1ncnc2[nH]ccc12)[C@H]1C[C@@H]2CN(C(=O)CNS(C)(=O)=O)C[C@@H]2C1` [Example 21, N-(2-((3aR,5S,6aS)-5-(Methyl(7H-pyrrolo[2,3-d]pyrimidin-4-yl)amino)hexahydrocyclopenta[c]pyrrol-2(1H)-yl)-2-oxoethyl)methanesulfonamide], it took 892 nM to reach half-maximal inhibition in experiment [2] (72 h) (IC50).

Regarding `CN(c1ncnc2[nH]ccc12)[C@H]1C[C@@H]2CN(C(=O)CO)C[C@@H]2C1` [Example 6, 2-Hydroxy-1-((3aR,5S,6aS)-5-(methyl(7H-pyrrolo[2,3-d]pyrimidin-4-yl)amino)hexahydrocyclopenta[c]pyrrol-2(1H)-yl)ethanone], the IC50 turned out to be 457 nM in experiment [1] (TF-1, 72 h) and 414 nM in experiment [2] (72 h).

For the compound `CN(c1ncnc2[nH]ccc12)[C@@H]1C[C@@H]2CN(CCC#N)C[C@@H]2C1` [Example 68, 3-((3aR,5R,6aS)-5-(methyl(7H-pyrrolo[2,3-d]pyrimidin-4-yl)amino)hexahydrocyclopenta[c]pyrrol-2(1H)-yl)propanenitrile], in experiment [2] (72 h), half-maximal inhibition (IC50) required 824 nM.

Consider `CN(c1ncnc2[nH]ccc12)[C@H]1C[C@@H]2CN(CCC#N)C[C@@H]2C1` [Example 27, 3-((3 aR,5S,6aS)-5-(Methyl(7H-pyrrolo[2,3-d]pyrimidin-4-yl)amino)hexahydrocyclopenta[c]pyrrol-2(1H)-yl)propanenitrile], for which, in experiment [2] (72 h), the IC50 came to 253 nM.

Compound `COc1cncc(NC(=O)N2C[C@H]3C[C@H](N(C)c4ncnc5[nH]ccc45)C[C@H]3C2)c1` [Example 109, (3aR,5S,6aS)-N-(5-methoxypyridin-3-yl)-5-(methyl(7H-pyrrolo[2,3-d]pyrimidin-4-yl)amino)hexahydrocyclopenta[c] pyrrole-2(1H)-carboxamide] had an IC50 in experiment [2] (72 hours) of 762 nM.
